# Patent publication US5800820A, “Methods and compositions for treatment of angiogenic diseases” (Repligen Corporation, priority 1995, dated 1998)
# Positions count from the first letter of the chain named. Values joined by “and” are separate entries in the source; they are usually repeats but may differ in a detail not shown here. Identical values can stand only once.
# B1: rPF4-241: PF4 mutant, four lysine residues near the C-terminus changed to two Gln-Glu couplets: P L Y Q E I I Q E L L E S (protein, UniProt P02776 32-101, looked up, variant K61Q K62E K65Q K66E)
# Platelet factor 4: EAEEDGDLQCLCVKTTSQVRPRHITSLEVIKAGPHCPTAQLIATLKNGRKICLDLQAPLYQEIIQELLES
# modifications: Platelet factor 4 recombinant
# notes: PF4 mutant, four lysine residues near the C-terminus changed to two Gln-Glu couplets: P L Y Q E I I Q E L L E S
# B2: rPF4-302: rPF4 mutant, C-terminal sequence P L Y Q Q I I Q Q L L E S (protein, UniProt P02776 32-101, looked up, variant K61Q K62Q K65Q K66Q)
# Platelet factor 4: B1 Platelet factor 4 with E62Q, E66Q
# modifications: Platelet factor 4 recombinant
# B3: rPF4-307: rPF4 mutant, C-terminal sequence P L Y Q I E I Q L E L E S (protein, UniProt P02776 32-101, looked up, variant K61Q K62I I63E I64I K65Q K66L L67E L68L)
# Platelet factor 4: B1 Platelet factor 4 with E62I, I63E, E66L, L67E
# modifications: Platelet factor 4 recombinant
# Experiments:
# [1] = test system: hind footpad (murine dermis); experiment: Footpad assay (dermal inflammation); settings: systemic indomethacin
# Description: (§1) Footpad Assay. 0.05 ml of PBS containing a test substance was injected intradermally into the right hind footpad of each mouse. An identical amount of diluent, not containing the test substance, was injected into the left hind footpad. At various time points, footpad thicknesses were measured with a spring loaded engineer's micrometer (Fowler Co., Biggswald, England).
# (§2) At various time points, mice were sacrificed and footpad tissue was prepared for light microscopy. This tissue was used to quantify infiltrating cell types. Biopsy specimens were fixed in 10% buffered formalin for at least 48 hours and then prepared using standard techniques of paraffin embedding and staining with hematoxylin and eosin. Using an ocular grid, four cellular areas of dermis in each specimen were examined in a coded fashion at 1000× magnification and inflammatory cells were quantified. Differences between groups were assessed by Student's t test or analysis of variance, where appropriate.
# (§3) For each mouse, 0.05 mg, slow release indomethacin pellets (Innovative Research, Toledo, Ohio) were implanted subcutaneously under light ether anesthesia 48 hours prior to an experiment. These pellets continuously release their contents over 14 days.
# Implanted tumors = experiment: Anti-tumor activity of rPF4 combined with indomethacin; format: in vivo, mice; settings: s.c. tumors, indomethacin 50 μg slow release pellet; FIG. 10
# Description: Four groups of mice were used in this experiment. In two groups of mice, slow release indomethacin pellets (50 μg) were implanted surgically under the skin of the left flank. The other two groups were not treated with indomethacin. Tumors were implanted subcutaneously in all four groups in the right flank.
# [2] = test system: heparin inhibition of thrombin; experiment: Thrombin assay of heparin binding (prevention of heparin inhibition); format: biochemical; settings: C-13: even at ten times an effective level of rPF4
# [3] = test system: hind footpad (murine dermis); settings: mouse, in vivo
# Description: as §1, §2, §3
# [4] = test system: heparin inhibition of Factor Xa; experiment: Factor Xa assay of heparin binding (prevention of heparin inhibition); format: biochemical
# From the text: The lysine rich region of PF4 (residues 61-66) is also the domain associated with the binding of heparin by PF4. Heparin is known to play a role in modulating angiogenesis, which can also be affected by protamine, another well characterized heparin-binding protein. To assess the ability of PF4-based synthetic peptides to bind heparin, we assayed the activity of coagulation-cascade enzymes which are inhibited by heparin. The Factor Xa assay used here has previously been described in Denton et al. (1983) Biochem. J. 209:455-460.
# angiogenesis on the CAM = experiment: Chicken chorioallantoic membrane (CAM) assay; format: in vivo; settings: for biological activity in the CAM assay: Table 4, compared with rPF4-211
# Description: Chicken Chorioallantoic Membrane (CAM) Assay. Fertile eggs were incubated in a stationary position for 3 days at 37° C. and 70-80% relative humidity. During this time, the embryo rose to the upper surface of the egg contents. At the beginning of the 4th day, the eggs were cracked without inversion and carefully deposited into sterile plastic petri dishes such that the embryo remained on the upper surface. The shell-free eggs were incubated for an additional 72 hours at 37° C., under an atmosphere containing 2.5-3.5% CO2 after which the growing embryos developed a recognizable CAM. Discs, made by mixing test samples with 1% (w/v) methylcellulose, were dried and placed on the CAM between major veins and approximately 0.5 cm from the embryo. Following another 48 hour incubation at 37° C. (2.5-3.5% CO2), the samples were scored for their ability to inhibit angiogenesis. Inhibition appears as an avascular zone surrounding the implant and can often include elbows formed by veins avoiding the disc and a reduced number of capillaries in the region of the implant.
# [5] = test system: Human umbilical vein endothelial cells (HUVEC); experiment: Endothelial cell proliferation assay; format: cell-based; settings: for biological activity in the HUVEC assay: Table 4, compared with rPF4-211; for inhibition of human umbilical vein endothelial cell proliferation: FIG. 6
# Description: Endothelial Cell Proliferation Assay. Human umbilical vein endothelial cells (HUVEC) were cultured in Medium 199 (Gibco) containing 10% (v/v) fetal bovine serum (FBS), 150 mcg/ml endothelial cell growth supplement (ECGS) and 5 units/ml heparin at 37° C. and 4-5% CO2. Every 3-4 days, the cultures were harvested by trypsin treatment, diluted, replated, and grown to confluence. Prior to the start of an experiment, the cells were centrifuged and resuspended in heparin-free media and incubated with the test substance (PF4) for 3 days under standard culture conditions. At the end of the incubation period, the cells were removed by trypsin treatment and counted with a Particle Data Elzone 180 Cell Counter. Statistical significance between means was determined by a standard Student t-test for unpaired data. […]
# tumor cell growth = experiment: Tumor cell growth in vitro; format: cell-based
# [6] = test system: B16-F10 melanoma tumor line; experiment: In vivo tumor growth assay, injection into the nascent tumor; set-up: species or system C57BL/6J female mice
# Description: In vivo Tumor Growth Assay. Normal C57BL/6J female mice (6-8 weeks old) were inoculated subcutaneously with 5×10^5 log phase cells of a B16-F10 melanoma tumor line. This protocol led to progressive tumor growth resulting in large (300 mm^3) necrotic tumors after approximately 10 days, followed by death of untreated animals usually within three weeks of tumor inoculation.
# To test the efficacy of rPF4 in preventing in vivo tumor growth and angiogenesis, tumor bearing animals were injected daily, directly into the nascent tumor, with either rPF4 or with buffer lacking rPF4, beginning one day after tumor inoculation. Tumor volume was measured at regular intervals with digital calipers by laboratory personnel uninformed of the specific treatment received by each subject animal.
# The efficacy of rPF4-211 or rPF4-241 in preventing tumor growth and angiogenesis was tested. The inhibition of in vivo tumor growth was assayed after injection of either rPF4-211 (in 20 mM NaOAc, pH 4.0) or rPF4-241 (in 50 mM sodium phosphate, pH 6.5, 50 mM NaCl) directly into the nascent tumor, as described in the materials and methods section above.
# [7] = test system: B16 murine melanoma cell line; experiment: Systemic rPF4 against B16 melanoma lung metastases; format: in vivo; settings: for # of Metastases (#/Mouse) / Lung Wt.: day 21, average of six mice
# Description: Cells of a B16 murine melanoma cell line were injected intravenously into a tail vein of a mouse. Thirty seconds later, rPF4 (in saline or acetate buffer) was injected into the same mouse via a different tail vein. After 21 days, the tumor burden of the test and control animals was measured by counting, optically, lung metastases, and by weighing the lungs of the mice. Referring to Table 6, PF4 produced a dose-dependent effect, as measured by both parameters.
# Kaposi's sarcoma = experiment: Cancers that contain malignant endothelial cells; settings: such as Kaposi's sarcoma
# [8] = test system: Human umbilical vein endothelial cells (HUVEC); experiment: Endothelial cell proliferation assay; format: cell-based; settings: rPF4 50 mcg/ml, 5 u/ml heparin
# [9] = 0.375 mg rPF4 i.v. (19.7 mg/kg)
# [10] = heparin-deficient medium, FIG. 3
molecule,measurement,setting,value
COc1ccc2c(c1)c(CC(=O)O)c(C)n2C(=O)c1ccc(Cl)cc1 [indomethacin],effect on the inflammatory cell infiltrate induced by rPF4,[1],partially abrogated
same,effect on the rPF4 pro-inflammatory response,[1]; FIG. 8,significantly blunts
same,growth of implanted tumors,Implanted tumors,grew rapidly after day 6
"C-41: 41 amino acid C-terminal peptide of PF4 (IKAGPHCPTAQLIATLKNGRKICLDLQAPLYKKIIKKLLES; Platelet factor 4; UniProt P02776 61-101, looked up, fragment)",prevention of heparin inhibition of thrombin,[2],prevented heparin inhibition less effectively
same,Pro-inflammatory response Infiltrating,[3],++
same,Pro-inflammatory response Swelling,[3],++
same,composition of the inflammatory infiltrate,[3],composed of neutrophils and to a lesser degree mononuclear cells
same,inflammatory response,[3],pro-inflammatory
same,prevention of heparin inhibition of Factor Xa,[4],prevented heparin inhibition less effectively
cytochrome c [reference compound],inflammatory response,[3],failed to elicit a significant inflammatory response
polylysine [reference compound],inhibition of angiogenesis on the CAM,angiogenesis on the CAM; 6.5 nmol dosages,not to cause inhibition
protamine [reference compound],prevention of heparin inhibition of thrombin,[2],approximately equimolar concentrations
same,prevention of heparin inhibition of Factor Xa,[4],approximately equimolar concentrations
"rPF4-231: rPF4 mutant that terminates at amino acid number 60: [PF4 AA 1-57] P L Y (EAEEDGDLQCLCVKTTSQVRPRHITSLEVIKAGPHCPTAQLIATLKNGRKICLDLQAPLY; Platelet factor 4 recombinant; UniProt P02776 32-91, looked up, fragment)",biological activity in the CAM assay,angiogenesis on the CAM,does not exhibit significant biological activity
same,biological activity in the HUVEC assay,[5],does not exhibit significant biological activity
"rPF4: recombinant platelet factor 4 with the wild type sequence, 70 residues; residues 58-70 P L Y K K I I K K L L E S",prevention of heparin inhibition of thrombin,[2],approximately equimolar concentrations
same,direct inhibition of tumor cell growth in vitro,tumor cell growth,did not directly inhibit tumor cell growth in vitro
same,time until inhibition of tumor growth was apparent,[6]; after the initial inoculation of rPF4,apparent within three days
same,tumor growth on continued treatment,[6]; daily injection into the tumor,completely suppressed tumor growth
same,tumor status,"[6]; within seven days of tumor inoculation, daily injection into the tumor, FIG. 7",essentially tumor-free
same,Pro-inflammatory response Infiltrating,[3],++
same,Pro-inflammatory response Swelling,[3],++
same,composition of the inflammatory infiltrate,[3],composed of neutrophils and to a lesser degree mononuclear cells
same,onset of acute inflammation,[3],within two hours
same,# of Metastases (#/Mouse),[7]; [9],112.2 #/Mouse
same,Lung Wt.,[7]; [9],525 mg
same,# of Metastases (#/Mouse),[7]; 0.75 mg rPF4 i.v. (40.1 mg/kg),66.0 #/Mouse
same,Lung Wt.,[7]; 0.75 mg rPF4 i.v. (40.1 mg/kg),404 mg
same,# of Metastases (#/Mouse),[7]; 1.5 mg rPF4 i.v. (84.2 mg/kg),54.7 #/Mouse
same,Lung Wt.,[7]; 1.5 mg rPF4 i.v. (84.2 mg/kg),357 mg
same,toxicity or other adverse effects,[7]; systemic dosages in excess of 5000 μg per kg of body weight,no observable toxicity or other adverse effects
same,effect on cancers that contain malignant endothelial cells,Kaposi's sarcoma,inhibitory
same,prevention of heparin inhibition of Factor Xa,[4],approximately equimolar concentrations
same,endothelial cell growth (cell count),[8]; three day incubation,14.0 ± 0.4
same,% Inhibition,[8]; based on seeding of 8 × 10^4 cells/well,45%
same,growth of implanted tumors,Implanted tumors,"grew very little, if at all"
same,inhibition of angiogenesis on the CAM,"angiogenesis on the CAM; discs containing several concentrations, FIG. 2",inhibited angiogenesis
same,inhibition of human umbilical vein endothelial cell proliferation,[5],effective at inhibiting the proliferation
same,concentration at which inhibition of endothelial cell growth was complete,[5]; [10],3.2 µM
same,lowest concentration with significant inhibition of endothelial cell growth,[5]; [10],1.3 µM
same,endothelial cell growth (cell count),"[5]; rPF4 50 mcg/ml, no heparin, three day incubation",6.0 ± 0.6
same,% Inhibition,"[5]; rPF4 50 mcg/ml, no heparin, based on seeding of 8 × 10^4 cells/well",100% and ~ 100%
B1,tumor growth on continued treatment,[6]; daily injection into the tumor,same effect was observed
same,Pro-inflammatory response Infiltrating,[3],+
same,Pro-inflammatory response Swelling,[3],+
same,heparin-binding activity,[4]; Factor Xa inhibition assay,lacked heparin-binding activity
same,inhibition of angiogenesis in the CAM system,"angiogenesis on the CAM; 1.25 nmol/disc, lowest concentration tested, FIG. 5",extensively inhibited angiogenesis
same,reversal of the inhibitory effect by heparin,angiogenesis on the CAM; CAM,not reversed by heparin
same,biological activity in the CAM assay,angiogenesis on the CAM,enhanced activity
same,inhibition of angiogenesis compared with native rPF4,"angiogenesis on the CAM; equal concentrations, larger avascular zones",even more effective
same,inhibition of human umbilical vein endothelial cell proliferation,[5],effective at inhibiting the proliferation
same,biological activity in the HUVEC assay,[5],enhanced activity
B2,biological activity in the CAM assay,angiogenesis on the CAM,does not exhibit significant activity
same,biological activity in the HUVEC assay,[5],does not exhibit significant activity
B3,biological activity in the CAM assay,angiogenesis on the CAM,enhanced activity
same,biological activity in the HUVEC assay,[5],enhanced activity
